Reference: patent publication US7816520B2, “5,6-diphenyl-1,2,4-triazinic dimeric derivatives and the use thereof in the form of sun-protective agents” (Pierre Fabre Dermo-Cosmetique, priority 2004, dated 2010)
Several values for one entry are separate records, joined by “and”; a condition that tells them apart may be missing. Equal entries are not always repeated. Entries after “also recorded” stand apart in the source; their conditions may differ.

Columns and labels:
[1] = Spectral characteristics: molar extinction coefficient and specific absorbance (UV spectrophotometry in ethyl acetate); format: physicochemical; conditions: 10 μg/ml; for Maximum molar extinction coefficient UVA / Maximum specific absorbance UVA: UVA band; for Maximum molar extinction coefficient UVB / Maximum specific absorbance UVB: UVB band
Excerpt: The calculation of the molar extinction coefficient (ε) is made from the Beer-Lambert law:
[formula] Wherein: • A=absorbance • I0=intensity of the incident light • I=intensity of the transmitted light • ε=molar extinction (or molar absorbance) coefficient in M^−1 cm^−1 • l=path length in cm • c=concentration in mol/l
The molar extinction coefficient can be expressed with respect to a given mass of the product. It thus makes it possible to be able to compare the coefficients of extinction between products for the same given quantity. This quantity is 1% by weight. The molar extinction coefficient thus becomes the specific absorbance (A1cm^1%).
It is expressed as follows:
[formula] Wherein: • A1cm^1%=specific absorbance • ε=molar extinction coefficient • M=molar mass
The spectral characteristics of the compounds in comparison with commercial filters at a concentration of 10 μg/ml are summarized in tables 2-1 and 2-2.
Procedure: The products are dissolved in ethyl acetate to a concentration of 10 μg/ml. The spectra are measured using a dual-beam spectrophotometer (Varian CARY 50 Scan) between 290 nm and 400 nm.

[2] = In vitro SPF measurement in a chemical solvent (Diffey and Robson); conditions: ethyl acetate, 10 μg/ml, transmittance 290-400 nm
Description: The in vitro methods of determining the protective effectiveness of sun products consist of measuring by transmission spectrophotometry the absorption spectrum of the filter in solution or of the product applied on a substrate with the aim of simulating the surface of the skin. The effectiveness against UVB and/or UVA rays, or the effect on the cutaneous response, are then determined by calculation, taking into account or not the UV radiation action spectrum for the damage considered.
The Sayre/Agin and Diffey/Robson method, used since the 1990s, involves a comparative measurement, with the aid of an integrating-sphere spectroradiometer, of the transition from 290 nm to 400 nm in 5 nm steps, the sample being subjected to UV radiation from a stable known source covering the whole of the UV spectrum (unfiltered xenon).
Diffey and Robson evaluate the erythemal response by the following calculation:
[formula] E(λ)=spectral irradiation in W(m-^2) (nm^−1) at 40° N sun at 20° zenith angle • ε=erythematous capacity
[formula] N(λ)=number of values for a given wavelength
The Diffey and Robson formula makes it possible to determine SPF from the measurement of transmittance between 290 nm and 400 nm. Transmittance is measured in solution in ethyl acetate at a concentration of 10 μg/ml using a UV-visible spectrophotometer (Varian CARY 50 Scan).
[formula] T(λ)=transmittance at wavelength λ

[3] = Photostability in solution in a chemical solvent (Suntest CPS+); format: physicochemical; conditions: 25 μg deposited from methanol, absorbance vs non-irradiated control, in % (unit assumed); for Photostability at 5 MED, mean: Suntest irradiation 5 MED; for Photostability at 10 MED, mean: Suntest irradiation 10 MED
Excerpt: A Suntest CPS+(Atlas, Linsengenicht/Altenhasslan, Germany) was used. The Suntest makes it possible to reproduce the solar spectrum and thus to carry out exposures inside at any time without weather constraints.
The radiance of the solar simulator was carefully measured with a spectroradiometer (MSS 2044, Bielefeld, Germany). UVB and UVA intensities were 0.49 mW/cm^2 and 6.32 mW/cm^2, respectively. The MED value defined by COLIPA is 5.6 J/cm^2 in total UV (22). The UV total (UVA+UVB) accounts for 14.8% of the energy delivered by the lamp (power 460 W/m^2). An irradiation dose equivalent to 1 MED corresponds to 37.83 J/cm^2 (in total spectrum) delivered by the lamp.
The Suntest test duration is calculated using the following formula: t=H/E with: • E=illumination energy in W/m^2 • H=irradiation dose in J/m^2 • t=duration of the test in s
The solutions of the compounds are prepared at a concentration of 500 μg/ml in methanol. 50 μl (25 μg) of each solution are deposited in a crystallizer, then irradiated in the Suntest at 5, 10 and/or 20 MED. A non-irradiated control is prepared (deposit of 50 μl of solution and addition of 2.450 ml of methanol). The solvent evaporates during irradiation and the products are taken up in 2.5 ml of methanol. After irradiation, the absorbance of each solution is measured with the UV-visible spectrophotometer (Varian CARY 50 Scan).

[4] = Solubility study in solvents or excipients used in cosmetics; format: physicochemical; conditions: for Solubilities: Soluble (solvent in which the compound is soluble): value = solvent; for Solubilities: Insoluble (solvent in which the compound is insoluble): value = solvent named in the Insoluble column
[5] = Spectral distribution in UVA and UVB, 290 nm to 400 nm; format: physicochemical; conditions: for Spectral distribution (UV bands absorbed): absorption spectra, FIGS. 1-3; for Absorption peaks: range from 290 nm to 400 nm
Excerpt: The products tested are classified according to spectral distribution in UVA and UVB in a range from 290 nm to 400 nm. It is possible to differentiate them according to their spectral distribution: Products with a narrow spectrum: • Products absorbing in the range between 280 nm and 320 nm (UVB) • Products absorbing in the range between 320 nm and 400 nm (UVA) Products with a broad spectrum: • Products absorbing in UVB (280-320 nm) and UVA-II […] • Products covering UVB and UVA (280-400 nm).

[6] = excipient Finsol V NT ® (C12-C15 alkyl benzoate)
[7] = excipient PEG400 ® (polyethylene glycol)

| Compound | Maximum molar extinction coefficient UVA [1] [M⁻¹ cm⁻¹] | Maximum molar extinction coefficient UVB [1] [M⁻¹ cm⁻¹] | Maximum specific absorbance UVA ([1]; A1cm^1%) | Maximum specific absorbance UVB ([1]; A1cm^1%) | Wavelength of maximum molar extinction coefficient UVA ([1]; the 'at ...' part of the cell) | Wavelength of maximum molar extinction coefficient UVB ([1]; the 'at ...' part of the cell) | Wavelength of maximum specific absorbance UVA ([1]; the 'at ...' part of the cell) | Wavelength of maximum specific absorbance UVB ([1]; the 'at ...' part of the cell) | SPF [2] | Photostability at 5 MED, mean [3] | Photostability at 10 MED, mean [3] | Solubility (%) [4, 6] [%] | Solubility (%) [4, 7] [%] | Solubilities: Soluble (solvent in which the compound is soluble) [4] | Solubilities: Insoluble (solvent in which the compound is insoluble) [4] | Spectral distribution (UV bands absorbed) [5] | Absorption peaks [5] [nm] | other results |
| --- | --- | --- | --- | --- | --- | --- | --- | --- | --- | --- | --- | --- | --- | --- | --- | --- | --- | --- |
| CC(C)(C)CC(C)(C)c1cc(Cc2cc(C(C)(C)CC(C)(C)C)cc(-n3nc4ccccc4n3)c2O)c(O)c(-n2nc3ccccc3n2)c1 [Tinosorb M ®, reference compound] | 36400 | 36600 | 552 | 556 | at 345 nm | at 305 nm | at 345 nm | at 305 nm | 54.07 | – | – | – | – | – | – | – | – | – |
| 1,4-bis[5,6-(4,4′-dihexyl)-diphenyl-1,2,4-triazin-3-yl]benzene [WP96] | – | – | – | – | – | – | – | – | 68.02 | 83.30 | 74.35 | 1 | 2 | DMC and CHCl3 and Et2O and Toluene and Octanol and Methanol | EtOH and Myritol and Acetic acid | – | – | Solubility (%) ([4]; excipient Myritol 318 ® (caprylic/capric triglycerides)): 0.1%; Solubilities: Soluble, Transcutol ([4]; solvent Transcutol): Transcutol 0.5% |
| c1ccc(-c2nnc(-c3ccc(-c4nnc(-c5ccccc5)c(-c5ccccc5)n4)cc3)nc2-c2ccccc2)cc1 [WP30, 1,4-bis(5,6-diphenyl-1,2,4-triazin-3-yl)benzene] | 50200 | – | 928 | – | at 325 nm | – | at 325 nm | – | – | 77.75 | 56.12 | – | – | DMSO or hot DMF; also recorded: Ethyl acetate (PS) | Acetonitrile and Benzene and Myritol and Transcutol and Water and MeOH and CHCl3 and Acetone | absorb in UVB and UVA | 325 | – |
| CC(C)(C)c1ccc(-c2nnc(-c3ccc(-c4nnc(-c5ccc(C(C)(C)C)cc5)c(-c5ccc(C(C)(C)C)cc5)n4)cc3)nc2-c2ccc(C(C)(C)C)cc2)cc1 [WP104, 1,4-bis[5,6-(4,4′-4-di-tert-butyl)-diphenyl-1,2,4-triazin-3-yl]benzene] | – | 90000 | – | 1176 | – | at 300 nm | – | at 300 nm | 79.35 | 93.70 | 88.55 | – | – | DCM and CHCl3 and Toluene and DMSO and Ethyl acetate | EtOH and MeOH and 1-Octanol and Acetic acid and Myritol and Transcutol | absorb in UVB and UVA | 300 | – |
| CCCCC(CC)COc1ccc(-c2nc(-c3ccc(OC)cc3)nc(-c3ccc(OCC(CC)CCCC)cc3O)n2)c(O)c1 (stereo not shown) [Tinosorb S ®, reference compound] | 49580 | 41750 | 789 | 751 | at 345 nm | at 310 nm | at 345 nm | at 310 nm | 76.19 | – | – | – | – | – | – | – | – | – |
| CCCCCCCCCCCCc1ccc(-c2nnc(-c3ccc(-c4nnc(-c5ccc(CCCCCCCCCCCC)cc5)c(-c5ccc(CCCCCCCCCCCC)cc5)n4)cc3)nc2-c2ccc(CCCCCCCCCCCC)cc2)cc1 [WP107, 1,4-bis[5,6-bis(4-dodecylphenyl)-1,2,4-triazine-3-yl]benzene] | 95000 | 92000 | 783 | 757 | at 335 nm | at 300 nm | at 335 nm | at 300 nm | – | 89.27 | 84.75 | 1 | 1 | DCM and CHCl3 and Toluene and Octanol and Ethyl acetate and DMSO | EtOH and Acetic acid and MeOH and Myritol and Transcutol | absorb in UVB and UVA | 300 | Solubility (%) ([4]; excipient Arlasolve DMI ® (dimethyl isosorbide)): 1% |
| CC(C)CCC(C)(C)c1ccc(-c2nnc(-c3ccc(-c4nnc(-c5ccc(C(C)(C)CCC(C)C)cc5)c(-c5ccc(C(C)(C)CCC(C)C)cc5)n4)cc3)nc2-c2ccc(C(C)(C)CCC(C)C)cc2)cc1 [WP151] | 60500 | – | 611 | – | at 340 nm | – | at 340 nm | – | 67.2 | 76.16 | 70.15 | 5 | 0.5 | – | – | absorb in UVB and UVA | 340 | Solubility (%) ([4]; excipient Isopropyl adipate): 1%; Solubility (%) ([4]; excipient Myritol 331 ® (cocoglycerides)): 2% |
| CCCCC(CC)COC(=O)C=Cc1ccc(OC)cc1 (stereo not shown) [Parsol MCX ®, reference compound] | – | 24600 | – | 848 | – | at 310 nm | – | at 310 nm | 20.78 | – | – | – | – | – | – | – | 310 | – |
| COc1ccc(C(=O)CC(=O)c2ccc(C(C)(C)C)cc2)cc1 [Parsol 1789 ®, reference compound] | 34100 | – | 1100 | – | at 360 nm | – | at 360 nm | – | 51.1 | – | – | – | – | – | – | – | 360 | Maximum molar extinction coefficient UVC ([1]; UVC band): 8633 at M^−1 cm^−1; Maximum specific absorbance UVC ([1]; A1cm^1%, UVC band): 278 at; Wavelength of maximum molar extinction coefficient UVC ([1]; the 'at ...' part of the cell): 275 nm; Wavelength of maximum specific absorbance UVC ([1]; the 'at ...' part of the cell): 275 nm |
